Laboratory results: ChEMBL document CHEMBL2321830 (J Med Chem, 2013)
Where a chain is given by its changes, count along the chain named.

Legend:
[1] = molecular target: T1, Aldo-keto reductase family 1 member C4 (Homo sapiens, UniProt P17516); assay: Inhibition of human recombinant AKR1C4-mediated NADP+-dependent oxidation of S-(+)-1,2,3,4-tetrahydro-1-naphthol
T1 sequence (P17516 whole entry): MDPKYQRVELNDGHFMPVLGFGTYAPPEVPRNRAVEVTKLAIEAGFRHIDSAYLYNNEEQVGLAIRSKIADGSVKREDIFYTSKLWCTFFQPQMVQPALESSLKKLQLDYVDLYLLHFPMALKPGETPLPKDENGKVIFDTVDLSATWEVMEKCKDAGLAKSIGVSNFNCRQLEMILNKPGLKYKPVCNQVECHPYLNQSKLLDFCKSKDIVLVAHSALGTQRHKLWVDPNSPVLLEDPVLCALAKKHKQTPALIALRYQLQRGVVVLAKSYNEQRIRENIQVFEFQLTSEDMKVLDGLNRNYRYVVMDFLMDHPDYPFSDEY

[2] = molecular target: T2, Aldo-keto reductase family 1 member C1 (Homo sapiens, UniProt Q04828); assay: Inhibition of human recombinant AKR1C1-mediated NADP+-dependent oxidation of S-(+)-1,2,3,4-tetrahydro-1-naphthol
T2 sequence (Q04828 whole entry): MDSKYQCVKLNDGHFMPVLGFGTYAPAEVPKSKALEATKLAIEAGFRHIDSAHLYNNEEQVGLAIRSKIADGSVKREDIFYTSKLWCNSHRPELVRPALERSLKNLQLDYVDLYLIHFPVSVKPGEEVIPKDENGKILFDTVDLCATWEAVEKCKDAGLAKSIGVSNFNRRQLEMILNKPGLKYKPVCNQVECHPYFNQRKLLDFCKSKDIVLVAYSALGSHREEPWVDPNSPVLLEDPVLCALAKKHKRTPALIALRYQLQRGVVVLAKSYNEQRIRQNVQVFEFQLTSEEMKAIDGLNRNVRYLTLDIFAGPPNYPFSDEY

[3] = molecular target: T3, Aldo-keto reductase family 1 member C2 (Homo sapiens, UniProt P52895); assay: Inhibition of human recombinant AKR1C2-mediated NADP+-dependent oxidation of S-(+)-1,2,3,4-tetrahydro-1-naphthol
T3 sequence (P52895 whole entry): T2 sequence (Q04828 whole entry) with T38V, R47H, L54V, C87S, V151M, R170H, Q172L

[4] = molecular target: T4, Prostaglandin G/H synthase 2 (Mus musculus, UniProt Q05769)
T4 sequence (Q05769 whole entry): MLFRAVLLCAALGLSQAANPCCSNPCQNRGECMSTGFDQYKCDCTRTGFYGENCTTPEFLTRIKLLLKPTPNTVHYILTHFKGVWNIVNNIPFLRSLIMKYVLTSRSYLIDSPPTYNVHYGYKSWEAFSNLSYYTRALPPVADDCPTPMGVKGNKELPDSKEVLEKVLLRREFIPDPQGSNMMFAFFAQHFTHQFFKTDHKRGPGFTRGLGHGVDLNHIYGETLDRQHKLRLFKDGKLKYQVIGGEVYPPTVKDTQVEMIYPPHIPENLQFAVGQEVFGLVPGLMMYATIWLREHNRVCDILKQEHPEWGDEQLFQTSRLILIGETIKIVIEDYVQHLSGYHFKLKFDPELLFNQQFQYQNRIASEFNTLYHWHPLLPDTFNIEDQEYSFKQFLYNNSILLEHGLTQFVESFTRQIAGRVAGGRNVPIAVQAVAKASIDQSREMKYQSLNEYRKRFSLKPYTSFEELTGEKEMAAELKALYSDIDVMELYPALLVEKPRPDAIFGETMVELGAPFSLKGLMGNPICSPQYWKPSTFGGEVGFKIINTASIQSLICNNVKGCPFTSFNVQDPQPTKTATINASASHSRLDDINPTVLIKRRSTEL
Description: Inhibition of wild type mouse COX2 by discontinuous radioactive TLC assay

[5] = molecular target: T5, Prostaglandin G/H synthase 1 (Ovis aries, UniProt P05979)
T5 sequence (P05979 whole entry): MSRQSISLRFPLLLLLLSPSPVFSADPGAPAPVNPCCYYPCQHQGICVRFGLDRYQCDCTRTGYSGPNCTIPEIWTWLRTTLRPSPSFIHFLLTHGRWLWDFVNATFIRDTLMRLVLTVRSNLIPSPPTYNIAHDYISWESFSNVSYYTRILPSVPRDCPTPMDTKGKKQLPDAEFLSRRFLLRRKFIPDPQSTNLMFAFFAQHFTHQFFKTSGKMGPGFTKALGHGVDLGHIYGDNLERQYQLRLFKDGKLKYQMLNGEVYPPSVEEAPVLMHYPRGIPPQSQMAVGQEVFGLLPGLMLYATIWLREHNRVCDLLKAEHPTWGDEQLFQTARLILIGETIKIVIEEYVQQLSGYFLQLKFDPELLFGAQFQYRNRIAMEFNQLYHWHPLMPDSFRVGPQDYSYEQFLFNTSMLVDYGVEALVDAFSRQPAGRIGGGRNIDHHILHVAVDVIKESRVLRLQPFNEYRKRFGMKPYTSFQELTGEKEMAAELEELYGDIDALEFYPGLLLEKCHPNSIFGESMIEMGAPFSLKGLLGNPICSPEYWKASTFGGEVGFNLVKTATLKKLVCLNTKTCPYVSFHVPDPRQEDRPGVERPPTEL
Description: Inhibition of ovine COX1 by discontinuous radioactive TLC assay

[6] = molecular target: T6, Aldo-keto reductase family 1 member C3 (Homo sapiens, UniProt P42330); assay: Inhibition of human recombinant AKR1C3-mediated NADP+-dependent oxidation of S-(+)-1,2,3,4-tetrahydro-1-naphthol
T6 sequence (P42330 whole entry): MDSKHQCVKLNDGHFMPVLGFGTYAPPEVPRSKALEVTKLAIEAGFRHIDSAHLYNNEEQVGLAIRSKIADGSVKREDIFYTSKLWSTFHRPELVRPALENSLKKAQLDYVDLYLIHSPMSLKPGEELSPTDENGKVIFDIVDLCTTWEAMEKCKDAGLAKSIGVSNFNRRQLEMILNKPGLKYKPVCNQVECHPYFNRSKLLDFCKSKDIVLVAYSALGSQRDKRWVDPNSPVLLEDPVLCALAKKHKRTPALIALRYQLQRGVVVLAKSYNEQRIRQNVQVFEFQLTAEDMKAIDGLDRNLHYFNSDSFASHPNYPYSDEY

IC50 [3] | IC50 [6] | SMILES | further results
 |  | COc1ccc2c(c1)c(CC(=O)O)c(C)n2C(=O)c1ccc(C(F)(F)F)cc1 | IC50 [1]: > 100 µM; IC50 [2]: > 100 µM
6.19 µM | 0.25 µM | Cc1c(CC(=O)O)c2cc(F)ccc2n1C(=O)c1ccc(Cl)cc1 | IC50 [4]: 0.09 µM; IC50 [5]: 0.49 µM
 |  | COc1ccc2c(c1)c(CC(=O)O)cn2C(=O)c1ccc(Cl)cc1 | IC50 [4]: 3.27 µM; IC50 [5]: 15.3 µM; IC50 [2]: > 100 µM
 |  | COc1ccc2c(c1)c(CCC(=O)O)c(C)n2C(=O)c1ccc(Cl)cc1 | IC50 [1]: > 100 µM
 |  | COc1ccc2c(c1)c(CC(=O)NS(=O)(=O)C(F)(F)F)c(C)n2C(=O)c1ccc(Cl)cc1 | IC50 [1]: > 100 µM; IC50 [2]: > 100 µM
 |  | COc1ccc2c(c1)c(CC(=O)O)c(C)n2C(=O)c1ccc(C)cc1 | IC50 [1]: > 100 µM; IC50 [2]: > 100 µM
19.3 µM | 1.94 µM | COc1ccc2c(c1)c(CC(=O)NS(=O)(=O)c1cc(C(F)(F)F)ccc1C(F)(F)F)cn2C(=O)c1ccc(Cl)cc1 | 
13.5 µM | 0.29 µM | Cc1c(CCC(=O)O)c2cc(F)ccc2n1C(=O)c1ccc(Cl)cc1 | 
 |  | CCc1c(CCC(=O)O)n(C(=O)c2ccc(Cl)cc2)c2ccc(OC)cc12 | IC50 [4]: 7 µM
40.4 µM | 2.5 µM | COc1ccc2c(c1)c(C)c(CCC(=O)NS(=O)(=O)c1ccc(OC(F)(F)F)cc1)n2C(=O)c1ccc(Cl)cc1 | 
39.9 µM | 3.97 µM | COc1ccc2c(c1)c(CC(=O)NS(=O)(=O)c1ccc(Br)cc1)cn2C(=O)c1ccc(Cl)cc1 | 
39.9 µM | 7.86 µM | COc1ccc2c(c1)c(CC(=O)NS(=O)(=O)c1ccc(F)cc1)cn2C(=O)c1ccc(Cl)cc1 | 
7.84 µM | 2.23 µM | Cc1c(CC(=O)O)c2cc(F)ccc2n1C(=O)c1cccc(C(F)(F)F)c1 | 
42.7 µM | 12.4 µM | COc1ccc2c(c1)c(CC(=O)NS(=O)(=O)c1ccc(C)cc1)cn2C(=O)c1ccc(Cl)cc1 | 
 |  | COc1ccc2c(c1)c(CC(=O)NS(=O)(=O)C(F)(F)F)cn2C(=O)c1ccc(Cl)cc1 | IC50 [1]: > 100 µM; IC50 [2]: > 100 µM
27.4 µM | 2.65 µM | COc1ccc2c(c1)c(C)c(CCC(=O)NS(=O)(=O)c1ccc(C(C)=O)cc1)n2C(=O)c1ccc(Cl)cc1 | 
59.4 µM | 2.65 µM | COc1ccc2c(c1)c(CC(=O)NS(=O)(=O)c1ccc(OC(F)(F)F)cc1)cn2C(=O)c1ccc(Cl)cc1 | 
72.3 µM | 2.54 µM | COc1ccc2c(c1)c(C)c(CCC(=O)NS(=O)(=O)c1ccc3ccccc3c1)n2C(=O)c1ccc(Cl)cc1 | 
24 µM | 3.56 µM | COc1ccc2c(c1)cc(C)n2C(=O)c1ccc(Cl)cc1 | 
116 µM | 5.53 µM | COc1ccc2c(c1)c(C)c(CC(C)C(=O)NS(C)(=O)=O)n2C(=O)c1ccc(Cl)cc1 (centres undefined) | 
100 µM | 5.21 µM | COc1ccc2c(c1)c(CC(=O)O)cn2C(=O)c1cccc(C(F)(F)F)c1 | 
15.1 µM | 3.73 µM | COc1ccc2c(c1)c(CC(=O)NS(=O)(=O)c1ccc(Cl)s1)cn2C(=O)c1ccc(Cl)cc1 | 
100 µM | 0.279 µM | COc1ccc2c(c1)c1c(n2C(=O)c2cccc(C(F)(F)F)c2)CCC(C(=O)O)C1 (centres undefined) | 
33.7 µM | 1.11 µM | COc1ccc2c(c1)c(C)c(CCC(=O)NS(=O)(=O)c1ccc(C(F)(F)F)cc1)n2C(=O)c1ccc(Cl)cc1 | 
